Test results taken from patent US10617680B2 (CELGENE QUANTICEL RESEARCH, INC., priority 2017, dated 2020).

Target: CBP (Homo sapiens (Human), UniProt Q92793)
Assay: In vitro CBP inhibition (AlphaScreen, biotinylated H4-tetraacetyl peptide)
Format: binding
Conditions: AlphaScreen, Table 29; read-out: CBP IC50
Procedure, shortened: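 His-tagged CBP expressed in E. coli (50 nM final) incubated with biotinylated H4K5/8/12/16(Ac) peptide (20 nM final) in 50 mM HEPES pH 7.3, 10 mM NaCl, 0.25 mM TCEP, 0.1% BSA, 0.005% Brij-35, 0.4% DMSO, 20 min at room temp.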

CBP, sequence (Q92793 1081-1197): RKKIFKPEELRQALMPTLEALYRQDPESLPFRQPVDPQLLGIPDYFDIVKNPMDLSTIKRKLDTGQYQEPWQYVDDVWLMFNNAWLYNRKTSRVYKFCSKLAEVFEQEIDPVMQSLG

| Structure (SMILES) | IC50 [nM] |
| --- | --- |
| CC(C)Oc1ccc(-c2cc(=O)n(C)cc2-c2cnn(-c3cccc(Cl)c3C#N)c2)cn1 [Example 363, 2-chloro-6-[4-[4-(6-isopropoxy-3-pyridyl)-1-methyl-6-oxo-3-pyridyl]pyrazol-1-yl]benzonitrile] | < 500 |
| CCOc1ccc(-c2cc(=O)n(C)cc2-c2cnn(-c3cccc(Cl)c3C#N)c2)cn1 [Example 365, 2-chloro-6-(4-(6-ethoxy-1′-methyl-6′-oxo-1′,6′-dihydro-[3,4′-bipyridin]-3′-yl)-1H-pyrazol-1-yl)benzonitrile] | < 500 |
| CCc1ccc(-c2cc(=O)n(C)cc2-c2cnn(-c3ccccc3C#N)c2)cn1 [Example 373, 2-(4-(6-ethyl-1-methyl-6′-oxo-1′,6′-dihydro-[3,4′-bipyridin]-3′-yl)-1H-pyrazol-1-yl)benzonitrile] | < 500 |
| Cc1ccc(-c2cc(=O)n(C)cc2-c2cnn(-c3ccccc3C#N)c2)cn1 [Example 377, 2-(4-(1′,6-dimethyl-6′-oxo-1′,6′-dihydro-[3,4′-bipyridin]-3′-yl)-1H-pyrazol-1-yl)benzonitrile] | < 500 |
| Cn1cc(-c2cnn(-c3cccc(C4CC4)c3C#N)c2)c(-c2ccn(CC3CC3)c(=O)c2)cc1=O [Example 381, 2-cyclopropyl-6-[4-[4-[1-(cyclopropylmethyl)-2-oxo-4-pyridyl]-1-methyl-6-oxo-3-pyridyl]pyrazol-1-yl]benzonitrile] | < 500 |
| CCCn1ccc(-c2cc(=O)n(C)cc2-c2cnn(-c3cccc(C4CC4)c3C#N)c2)cc1=O [Example 385, 2-cyclopropyl-6-[4-[1-methyl-6-oxo-4-(2-oxo-1-propyl-4-pyridyl)-3-pyridyl]pyrazol-1-yl]benzonitrile] | < 500 |
| CCn1ccc(-c2cc(=O)n(C)cc2-c2cnn(-c3cccc(C4CC4)c3C#N)c2)cc1=O [Example 386, 2-cyclopropyl-6-[4-[4-(1-ethyl-2-oxo-4-pyridyl)-1-methyl-6-oxo-3-pyridyl]pyrazol-1-yl]benzonitrile] | < 500 |
| Cn1cc(-c2cnn(-c3cccc(C4CC4)c3C#N)c2)c(-c2ccn(C3CC3)c(=O)c2)cc1=O [Example 388, 2-cyclopropyl-6-(4-(1′-cyclopropyl-1-methyl-2′,6-dioxo-1,1′,2′,6-tetrahydro-[4,4′-bipyridin]-3-yl)-1H-pyrazol-1-yl)benzonitrile] | < 500 |
| Cn1cc(-c2cnn(-c3cccc(C4CC4)c3C#N)c2)c(-c2ccn(CCF)c(=O)c2)cc1=O [Example 389, 2-cyclopropyl-6-[4-[4-[1-(2-fluoroethyl)-2-oxo-4-pyridyl]-1-methyl-6-oxo-3-pyridyl]pyrazol-1-yl]benzonitrile] | < 500 |
| Cn1cc(-c2cnn(-c3cccc(C4CC4)c3C#N)c2)c(-c2ccn(CCO)c(=O)c2)cc1=O [Example 390, 2-cyclopropyl-6-[4-[4-[1-(2-hydroxyethyl)-2-oxo-4-pyridyl]-1-methyl-6-oxo-3-pyridyl]pyrazol-1-yl]benzonitrile] | < 500 |
| CCOc1cc(=O)n(C)cc1-c1cnn2c1CN(S(C)(=O)=O)CC2 [Example 392, 4-Ethoxy-5-(5-methanesulfonyl-4,5,6,7-tetrahydro-pyrazolo[1,5-a]pyrazin-3-yl)-1-methyl-1H-pyridin-2-one] | < 500 |
| CCOc1cc(=O)n(C)cc1-c1cnn2c1CN(C(C)=O)CC2 [Example 393, 5-(5-Acetyl-4,5,6,7-tetrahydro-pyrazolo[1,5-a]pyrazin-3-yl)-4-ethoxy-1-methyl-1H-pyridin-2-one] | 500 to 5000 |
| Cn1cc(-c2ncc(-c3ccccc3)o2)c(-c2ccccc2)cc1=O [Example 394, 1-methyl-4-phenyl-5-(5-phenyloxazol-2-yl)pyridin-2(1H)-one] | 500 to 5000 |
| Cn1nc(-c2cn(C)c(=O)cc2-c2ccccc2)cc1-c1ccccc1 [Example 395, 1-methyl-5-(1-methyl-5-phenyl-1H-pyrazol-3-yl)-4-phenylpyridin-2(1H)-one] | < 500 |
| Cn1cc(-c2coc(-c3ccccc3)n2)c(-c2ccccc2)cc1=O [Example 396, 1-methyl-4-phenyl-5-(2-phenyloxazol-4-yl)pyridin-2(1H)-one] | < 500 |

Now from value to compound:

| IC50 [nM] | Structure (SMILES) |
| --- | --- |
| < 500 | Cn1cc(-c2cnn(-c3cccc(F)c3C#N)c2)c(-c2ccc(OC3CC3)nc2)cc1=O [Example 362, 2-[4-[4-[6-(cyclopropoxy)-3-pyridyl]-1-methyl-6-oxo-3-pyridyl)pyrazol-1-yl]-6-fluoro-benzonitrile] |
| < 500 | Cn1cc(-c2cnn(-c3cccc(Cl)c3C#N)c2)c(-c2ccc(OC3CC3)nc2)cc1=O [Example 364, 2-chloro-6-[4-[4-[6-(cyclopropoxy)-3-pyridyl]-1-methyl-6-oxo-3-pyridyl]pyrazol-1-yl]benzonitrile] |
| < 500 | Cn1cc(-c2cnn(-c3cccc(Cl)c3C#N)c2)c(-c2ccc(C3CC3)nc2)cc1=O [Example 366, 2-chloro-6-[4-[4-(6-cyclopropyl-3-pyridyl)-1-methyl-6-oxo-3-pyridyl]pyrazol-1-yl]benzonitrile] |
| < 500 | Cc1ccc(-c2cc(=O)n(C)cc2-c2cnn(-c3cccc(F)c3C#N)c2)cn1 [Example 367, 2-(4-(1′,6-dimethyl-6′-oxo-1′,6′-dihydro-[3,4′-bipyridin]-3′-yl)-1H-pyrazol-1-yl)-6-fluorobenzonitrile] |
| < 500 | Cn1cc(-c2cnn(-c3cccc(F)c3C#N)c2)c(-c2ccc(C(F)(F)F)nc2)cc1=O [Example 368, 2-fluoro-6-(4-(1′-methyl-6′-oxo-6-(trifluoromethyl)-1′,6′-dihydro-[3,4′-bipyridin]-3′-yl)-1H-pyrazol-1-yl)benzonitrile] |
| < 500 | Cc1ccc(-c2cc(=O)n(C)cc2-c2cnn(-c3cccc(Cl)c3C#N)c2)cn1 [Example 369, 2-chloro-6-(4-(1′,6-dimethyl-6′-oxo-1′,6′-dihydro-[3,4′-bipyridin]-3′-yl)-1H-pyrazol-1-yl)benzonitrile] |
| < 500 | Cn1cc(-c2cnn(-c3cccc(Cl)c3C#N)c2)c(-c2ccc(C(F)(F)F)nc2)cc1=O [Example 370, 2-chloro-6-(4-(1′-methyl-6′-oxo-6-(trifluoromethyl)-1′,6′-dihydro-[3,4′-bipyridin]-3′-yl)-1H-pyrazol-1-yl)benzonitrile] |
| < 500 | CCc1ccc(-c2cc(=O)n(C)cc2-c2cnn(-c3cccc(Cl)c3C#N)c2)cn1 [Example 371, 2-chloro-6-(4-(6-ethyl-1′-methyl-6′-oxo-1′,6′-dihydro-[3,4′-bipyridin]-3′-yl)-1H-pyrazol-1-yl)benzonitrile] |
| < 500 | CCc1ccc(-c2cc(=O)n(C)cc2-c2cnn(-c3cccc(F)c3C#N)c2)cn1 [Example 372, 2-(4-(6-ethyl-1′-methyl-6-oxo-1′,6′-dihydro-[3,4′-bipyridin]-3′-yl)-1H-pyrazol-1-yl)-6-fluorobenzonitrile] |
| < 500 | Cn1cc(-c2cnn(-c3cccc(F)c3C#N)c2)c(-c2ccc(C3CC3)nc2)cc1=O [Example 374, 2-[4-[4-(6-cyclopropyl-3-pyridyl)-1-methyl-6-oxo-3-pyridyl]pyrazol-1-yl]-6-fluoro-benzonitrile] |
| < 500 | CC(C)c1ccc(-c2cc(=O)n(C)cc2-c2cnn(-c3cccc(F)c3C#N)c2)cn1 [Example 375, 2-fluoro-6-[4-[4-(6-isopropyl-3-pyridyl)-1-methyl-6-oxo-3-pyridyl]pyrazol-1-yl]benzonitrile] |
| < 500 | CC(C)c1ccc(-c2cc(=O)n(C)cc2-c2cnn(-c3cccc(Cl)c3C#N)c2)cn1 [Example 376, 2-chloro-6-[4-[4-(6-isopropyl-3-pyridyl)-1-methyl-6-oxo-3-pyridyl]pyrazol-1-yl]benzonitrile] |
| < 500 | Cn1cc(-c2cnn(-c3cccc(F)c3C#N)c2)c(-c2ccc(C3CCCC3)nc2)cc1=O [Example 378, 2-(4-(6-cyclopentyl-1′-methyl-6′-oxo-1′,6′-dihydro-[3,4′-bipyridin]-3′-yl)-1H-pyrazol-1-yl)-6-fluorobenzonitrile] |
| < 500 | Cn1cc(-c2cnn(-c3cccc(Cl)c3C#N)c2)c(-c2ccc(C3CCCC3)nc2)cc1=O [Example 379, 2-chloro-6-(4-(6-cyclopentyl-1′-methyl-6′-oxo-1′,6′-dihydro-[3,4′-bipyridin]-3′-yl)-1H-pyrazol-1-yl)benzonitrile] |
| < 500 | Cn1ccc(-c2cc(=O)n(C)cc2-c2cnn(-c3cccc(C4CC4)c3C#N)c2)cc1=O [Example 380, 2-cyclopropyl-6-[4-[1-methyl-4-(1-methyl-2-oxo-4-pyridyl)-6-oxo-3-pyridyl]pyrazol-1-yl]benzonitrile] |
| < 500 | CN(C)CCCOc1ccc(-c2cc(=O)n(C)cc2-c2cnn(-c3cccc(C4CC4)c3C#N)c2)cn1 [Example 382, 2-cyclopropyl-6-(4-(6-(3-(dimethylamino)propoxy)-1′-methyl-6′-oxo-1′,6′-dihydro-[3,4′-bipyridin]-3′-yl)-1H-pyrazol-1-yl)benzonitrile] |
| < 500 | COc1ccc(-c2cc(=O)n(C)cc2-c2cnn(-c3cccc(C4CC4)c3C#N)c2)cn1 [Example 383, 2-cyclopropyl-6-(4-(6-methoxy-1′-methyl-6′-oxo-1′,6′-dihydro-[3,4′-bipyridin]-3′-yl)-1H-pyrazol-1-yl)benzonitrile] |
| < 500 | CCOc1ccc(-c2cc(=O)n(C)cc2-c2cnn(-c3cccc(C4CC4)c3C#N)c2)cn1 [Example 384, 2-cyclopropyl-6-(4-(6-ethoxy-1′-methyl-6′-oxo-1′,6′-dihydro-[3,4′-bipyridin]-3′-yl)-1H-pyrazol-1-yl)benzonitrile] |
| < 500 | Cn1cc(-c2cnn(-c3cccc(C4CC4)c3C#N)c2)c(-c2ccc(OCCF)nc2)cc1=O [Example 387, 2-cyclopropyl-6-[4-[4-[6-(2-fluoroethoxy)-3-pyridyl]-1-methyl-6-oxo-3-pyridyl]pyrazol-1-yl]benzonitrile] |
| < 500 | Cn1cc(-c2cnn(-c3cccc(C4CC4)c3C#N)c2)c(-c2ccc(OCC3CC3)nc2)cc1=O [Example 391, 2-cyclopropyl-6-(4-(6-(cyclopropylmethoxy)-1′-methyl-6′-oxo-1′,6′-dihydro-[3,4′-bipyridin]-3′-yl)-1H-pyrazol-1-yl)benzonitrile] |
